What was measured:
[1] = target: T1, PI3Kγ (p120γ) (Homo sapiens, UniProt P48736); test: Inhibition of PI3K kinase activity (ADP Glo), PI3Kγ; conditions: Table 2, p120γ, read-out: biochemical potency (PI3Kγ IC50)
T1 construct: purchased Promega V1761
Outline: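 IC50 values come from a 4-parameter nonlinear fit of ADP-Glo luminescence, which measures ADP produced as PIP2 is phosphorylated to PIP3. The p120γ enzyme (2× stock 8 nM) sat with compound 1 h at rt before substrate (2× stocks: 50 μM ATP, 0.1 mg/ml PIP2) was added. Phosphorylation then proceeded 60 min at rt.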

[2] = target: T2, PI3Kγ (Homo sapiens, UniProt P48736); test: PI3Kγ cellular assay in THP-1 cells (AKT pS473 AlphaLISA); assay type: cell-based; conditions: Table 2, rhMCP-1 stimulated AKT pS473, read-out: cellular potency (PI3Kγ IC50)
T2 construct: host or cells: THP-1
Outline: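 Endogenous AKT S473 phosphorylation, detected by AlphaLISA in lysates, serves as the PI3Kγ activity read-out in stimulated, serum-starved THP-1 cells (1.8×10^5/well).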

T1 sequence (P48736 whole entry): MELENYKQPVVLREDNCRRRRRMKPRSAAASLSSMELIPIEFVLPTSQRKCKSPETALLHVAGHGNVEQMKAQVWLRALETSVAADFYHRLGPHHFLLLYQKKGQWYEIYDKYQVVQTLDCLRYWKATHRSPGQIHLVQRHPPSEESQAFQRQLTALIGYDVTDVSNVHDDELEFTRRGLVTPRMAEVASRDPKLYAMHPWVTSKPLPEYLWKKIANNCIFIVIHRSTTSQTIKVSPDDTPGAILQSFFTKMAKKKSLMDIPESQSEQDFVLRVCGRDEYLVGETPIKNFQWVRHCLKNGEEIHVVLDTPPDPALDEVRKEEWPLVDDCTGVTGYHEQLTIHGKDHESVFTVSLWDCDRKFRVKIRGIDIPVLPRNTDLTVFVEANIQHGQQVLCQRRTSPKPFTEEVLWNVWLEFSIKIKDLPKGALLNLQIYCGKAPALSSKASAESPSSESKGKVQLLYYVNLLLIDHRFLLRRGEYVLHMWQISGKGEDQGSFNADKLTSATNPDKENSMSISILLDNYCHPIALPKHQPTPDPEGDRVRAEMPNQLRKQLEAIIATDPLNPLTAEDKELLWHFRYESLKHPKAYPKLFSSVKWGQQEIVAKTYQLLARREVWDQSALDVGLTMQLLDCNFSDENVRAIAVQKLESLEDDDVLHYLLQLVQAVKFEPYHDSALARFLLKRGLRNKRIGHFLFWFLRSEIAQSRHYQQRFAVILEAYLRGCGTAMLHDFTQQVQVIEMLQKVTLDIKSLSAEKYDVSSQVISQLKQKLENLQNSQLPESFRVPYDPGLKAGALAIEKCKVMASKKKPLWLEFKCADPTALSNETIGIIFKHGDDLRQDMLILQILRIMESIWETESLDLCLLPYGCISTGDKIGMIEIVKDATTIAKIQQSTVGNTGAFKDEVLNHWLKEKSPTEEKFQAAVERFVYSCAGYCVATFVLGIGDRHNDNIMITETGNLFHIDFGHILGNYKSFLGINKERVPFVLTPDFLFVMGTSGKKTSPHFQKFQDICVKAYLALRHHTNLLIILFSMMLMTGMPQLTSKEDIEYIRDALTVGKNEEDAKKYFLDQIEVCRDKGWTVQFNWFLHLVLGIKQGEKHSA
T2 sequence (P48736 whole entry): as above

Cc1cc(-c2ccn3nc(N)c(C(=O)N[C@@H](C)C(N)=O)c3n2)cc2c1C(=O)N([C@@H](C)C1CC1)C2 [Example 190]
IC50 [1]: < 100 nM | IC50 [2]: 100 to 1000 nM

Cc1cc(-c2ccn3nc(N)c(C(=O)N[C@@H](CO)C(C)C)c3n2)cc2c1C(=O)N([C@@H](C)C1CC1)C2 [Example 191]
IC50 [1]: < 100 nM | IC50 [2]: 100 to 1000 nM

Cc1cc(-c2ccn3nc(N)c(C(=O)N[C@@H](CO)c4ccccc4)c3n2)cc2c1C(=O)N([C@@H](C)C1CC1)C2 [Example 192]
IC50 [1]: < 100 nM | IC50 [2]: 100 to 1000 nM

Cc1cc(-c2ccn3nc(N)c(C(=O)N[C@H]4CC[C@@H](C(=O)O)CC4)c3n2)cc2c1C(=O)N([C@@H](C)C1CC1)C2 [Example 193]
IC50 [1]: < 100 nM | IC50 [2]: 100 to 1000 nM

CC(=O)N1CC(NC(=O)c2c(N)nn3ccc(-c4cc(C)c5c(c4)CN([C@@H](C)C4CC4)C5=O)nc23)C1 [Example 194]
IC50 [1]: < 100 nM | IC50 [2]: 100 to 1000 nM

Cc1cc(-c2ccn3nc(N)c(C(=O)N[C@@H](CO)C4CC4)c3n2)cc2c1C(=O)N([C@@H](C)C1CC1)C2 [Example 195]
IC50 [1]: < 100 nM | IC50 [2]: 100 to 1000 nM

Cc1cc(-c2ccn3nc(N)c(C(=O)N[C@H]4C[C@@](C)(O)C4)c3n2)cc2c1C(=O)N([C@@H](C)C1CC1)C2 [Example 196]
IC50 [1]: < 100 nM | IC50 [2]: 100 to 1000 nM

Cc1cc(-c2ccn3nc(N)c(C(=O)N[C@@H]4CC[C@H](O)C4)c3n2)cc2c1C(=O)N([C@@H](C)C1CC1)C2 [Example 197]
IC50 [1]: < 100 nM | IC50 [2]: 100 to 1000 nM

Cc1cc(-c2ccn3nc(N)c(C(=O)N[C@@H]4c5ccccc5C[C@H]4O)c3n2)cc2c1C(=O)N([C@@H](C)C1CC1)C2 [Example 198]
IC50 [1]: < 100 nM | IC50 [2]: 100 to 1000 nM

Cc1cc(-c2ccn3nc(N)c(C(=O)N[C@@H]4COC[C@H]4O)c3n2)cc2c1C(=O)N([C@@H](C)C1CC1)C2 [Example 199]
IC50 [1]: < 100 nM | IC50 [2]: 100 to 1000 nM

Cc1cc(-c2ccn3nc(N)c(C(=O)N[C@@H](C)C4CCOCC4)c3n2)cc2c1C(=O)N([C@@H](C)C1CC1)C2 [Example 200]
IC50 [1]: < 100 nM | IC50 [2]: 100 to 1000 nM

Cc1cc(-c2ccn3nc(N)c(C(=O)NCc4ccncc4)c3n2)cc2c1C(=O)N([C@@H](C)C1CC1)C2 [Example 201]
IC50 [1]: < 100 nM | IC50 [2]: 100 to 1000 nM

Cc1cc(-c2ccn3nc(N)c(C(=O)N[C@@H]4CNC(=O)C4)c3n2)cc2c1C(=O)N([C@@H](C)C1CC1)C2 [Example 202]
IC50 [1]: < 100 nM | IC50 [2]: 100 to 1000 nM

Cc1cc(-c2ccn3nc(N)c(C(=O)NCC(C)(C)O)c3n2)cc2c1C(=O)N([C@@H](C)C1CC1)C2 [Example 203]
IC50 [1]: < 100 nM | IC50 [2]: 100 to 1000 nM

Cc1cc(-c2ccn3nc(N)c(C(=O)N[C@H]4CC[C@@H](O)CC4)c3n2)cc2c1C(=O)N([C@@H](C)C1CC1)C2 [Example 205]
IC50 [1]: < 100 nM | IC50 [2]: 100 to 1000 nM

Cc1cc(-c2ccn3nc(N)c(C(=O)N[C@H](C)CO)c3n2)cc2c1C(=O)N([C@@H](C)C1CC1)C2 [Example 206]
IC50 [1]: < 100 nM | IC50 [2]: 100 to 1000 nM

Cc1cc(-c2ccn3nc(N)c(C(=O)NCc4ccn(C)n4)c3n2)cc2c1C(=O)N([C@@H](C)C1CC1)C2 [Example 207]
IC50 [1]: < 100 nM | IC50 [2]: 100 to 1000 nM

Cc1cc(-c2ccn3nc(N)c(C(=O)NC4CC4)c3n2)cc2c1C(=O)N([C@@H](C)C1CC1)C2 [Example 208]
IC50 [1]: < 100 nM | IC50 [2]: 100 to 1000 nM

Cc1cc(-c2ccn3nc(N)c(C(=O)NC4CCN(C)CC4)c3n2)cc2c1C(=O)N([C@@H](C)C1CC1)C2 [Example 209]
IC50 [1]: < 100 nM | IC50 [2]: 100 to 1000 nM

Cc1cc(-c2ccn3nc(N)c(C(=O)N[C@H]4CCC[C@@H]4O)c3n2)cc2c1C(=O)N([C@@H](C)C1CC1)C2 [Example 210]
IC50 [1]: < 100 nM | IC50 [2]: 100 to 1000 nM

Cc1cc(-c2ccn3nc(N)c(C(=O)N[C@H]4CC[C@@H]4O)c3n2)cc2c1C(=O)N([C@@H](C)C1CC1)C2 [Example 211]
IC50 [1]: < 100 nM | IC50 [2]: 100 to 1000 nM

Cc1cc(-c2ccn3nc(N)c(C(=O)N[C@@H](C)c4cccnc4)c3n2)cc2c1C(=O)N([C@@H](C)C1CC1)C2 [Example 212]
IC50 [1]: < 100 nM | IC50 [2]: 100 to 1000 nM

Cc1cc(-c2ccn3nc(N)c(C(=O)NCC4CC4)c3n2)cc2c1C(=O)N([C@@H](C)C1CC1)C2 [Example 213]
IC50 [1]: < 100 nM | IC50 [2]: 100 to 1000 nM

Cc1cc(-c2ccn3nc(N)c(C(=O)NCc4cnn(C)c4)c3n2)cc2c1C(=O)N([C@@H](C)C1CC1)C2 [Example 214]
IC50 [1]: < 100 nM | IC50 [2]: 100 to 1000 nM

Cc1cc(-c2ccn3nc(N)c(C(=O)NC[C@H]4C[C@@H](O)C4)c3n2)cc2c1C(=O)N([C@@H](C)C1CC1)C2 [Example 215]
IC50 [1]: < 100 nM | IC50 [2]: 100 to 1000 nM

CNC(=O)c1c(N)nn2ccc(-c3cc(C)c4c(c3)CN([C@@H](C)C3CC3)C4=O)nc12 [Example 216]
IC50 [1]: < 100 nM | IC50 [2]: 100 to 1000 nM

Cc1cc(-c2ccn3nc(N)c(C(=O)N[C@@H](C)c4ccccn4)c3n2)cc2c1C(=O)N([C@@H](C)C1CC1)C2 [Example 217]
IC50 [1]: < 100 nM | IC50 [2]: 100 to 1000 nM

Cc1cc(-c2ccn3nc(N)c(C(=O)N[C@@H]4CCNC4)c3n2)cc2c1C(=O)N([C@@H](C)C1CC1)C2 [Example 218]
IC50 [1]: < 100 nM | IC50 [2]: 100 to 1000 nM

Cc1cc(-c2ccn3nc(N)c(C(=O)N[C@H](C)c4ccncc4)c3n2)cc2c1C(=O)N([C@@H](C)C1CC1)C2 [Example 219]
IC50 [1]: < 100 nM | IC50 [2]: 100 to 1000 nM

Cc1cc(-c2ccn3nc(N)c(C(=O)N[C@@H](C)C4CC4)c3n2)cc2c1C(=O)N([C@@H](C)C1CC1)C2 [Example 220]
IC50 [1]: < 100 nM | IC50 [2]: 100 to 1000 nM

Cc1cc(-c2ccn3nc(N)c(C(=O)N[C@@H](C)CO)c3n2)cc2c1C(=O)N([C@@H](C)C1CC1)C2 [Example 221]
IC50 [1]: < 100 nM | IC50 [2]: 100 to 1000 nM

Cc1cc(-c2ccn3nc(N)c(C(=O)NCC(F)(F)F)c3n2)cc2c1C(=O)N([C@@H](C)C1CC1)C2 [Example 222]
IC50 [1]: < 100 nM | IC50 [2]: 100 to 1000 nM

Cc1cc(-c2ccn3nc(N)c(C(=O)NC(C)(C)CO)c3n2)cc2c1C(=O)N([C@@H](C)C1CC1)C2 [Example 223]
IC50 [1]: < 100 nM | IC50 [2]: 100 to 1000 nM

Cc1cc(-c2ccn3nc(N)c(C(=O)NC(C)C(N)=O)c3n2)cc2c1C(=O)N([C@@H](C)C1CC1)C2 (stereo partly shown) [Example 224]
IC50 [1]: < 100 nM | IC50 [2]: 100 to 1000 nM

Cc1cc(-c2ccn3nc(N)c(C(=O)N[C@H]4CCNC4=O)c3n2)cc2c1C(=O)N([C@@H](C)C1CC1)C2 [Example 225]
IC50 [1]: < 100 nM | IC50 [2]: 100 to 1000 nM

Cc1cc(-c2ccn3nc(N)c(C(=O)NCC4COC4)c3n2)cc2c1C(=O)N([C@@H](C)C1CC1)C2 [Example 226]
IC50 [1]: < 100 nM | IC50 [2]: 100 to 1000 nM

Cc1cc(-c2ccn3nc(N)c(C(=O)NC[C@@H](C)O)c3n2)cc2c1C(=O)N([C@@H](C)C1CC1)C2 [Example 227]
IC50 [1]: < 100 nM | IC50 [2]: 100 to 1000 nM

Cc1cc(-c2ccn3nc(N)c(C(=O)NC4(CCO)CC4)c3n2)cc2c1C(=O)N([C@@H](C)C1CC1)C2 [Example 228]
IC50 [1]: < 100 nM | IC50 [2]: 100 to 1000 nM

Cc1cc(-c2ccn3nc(N)c(C(=O)N[C@@H]4CCCC[C@H]4O)c3n2)cc2c1C(=O)N([C@@H](C)C1CC1)C2 [Example 229]
IC50 [1]: < 100 nM | IC50 [2]: 100 to 1000 nM

Cc1cc(-c2ccn3nc(N)c(C(=O)N[C@H](C)CN)c3n2)cc2c1C(=O)N([C@@H](C)C1CC1)C2 [Example 230]
IC50 [1]: < 100 nM | IC50 [2]: 100 to 1000 nM

Cc1cc(-c2ccn3nc(N)c(C(=O)N[C@@H]4CCCNC4)c3n2)cc2c1C(=O)N([C@@H](C)C1CC1)C2 [Example 231]
IC50 [1]: < 100 nM | IC50 [2]: 100 to 1000 nM

Cc1cc(-c2ccn3nc(N)c(C(=O)N[C@H]4CCNC4)c3n2)cc2c1C(=O)N([C@@H](C)C1CC1)C2 [Example 232]
IC50 [1]: < 100 nM | IC50 [2]: 100 to 1000 nM

CCNC(=O)c1c(N)nn2ccc(-c3cc(C)c4c(c3)CN([C@@H](C)C3CC3)C4=O)nc12 [Example 233]
IC50 [1]: < 100 nM | IC50 [2]: 100 to 1000 nM

Cc1cc(-c2ccn3nc(N)c(C(=O)NC[C@H](C)O)c3n2)cc2c1C(=O)N([C@@H](C)C1CC1)C2 [Example 234]
IC50 [1]: < 100 nM | IC50 [2]: 100 to 1000 nM

Cc1cc(-c2ccn3nc(N)c(C(=O)N[C@@H](C)c4cnn(C)c4)c3n2)cc2c1C(=O)N([C@@H](C)C1CC1)C2 [Example 235]
IC50 [1]: < 100 nM | IC50 [2]: 100 to 1000 nM

Cc1cc(-c2ccn3nc(N)c(C(=O)NCC(N)=O)c3n2)cc2c1C(=O)N([C@@H](C)C1CC1)C2 [Example 236]
IC50 [1]: < 100 nM | IC50 [2]: 100 to 1000 nM

Cc1cc(-c2ccn3nc(N)c(C(=O)N[C@@H](CO)C(C)(C)C)c3n2)cc2c1C(=O)N([C@@H](C)C1CC1)C2 [Example 237]
IC50 [1]: < 100 nM | IC50 [2]: 100 to 1000 nM

Cc1cc(-c2ccn3nc(N)c(C(=O)NC[C@@H]4CCOC4)c3n2)cc2c1C(=O)N([C@@H](C)C1CC1)C2 [Example 238]
IC50 [1]: < 100 nM | IC50 [2]: 100 to 1000 nM

Cc1cc(-c2ccn3nc(N)c(C(=O)N[C@H]4CC[C@@H](O)C4)c3n2)cc2c1C(=O)N([C@@H](C)C1CC1)C2 [Example 239]
IC50 [1]: < 100 nM | IC50 [2]: 100 to 1000 nM

Cc1cc(-c2ccn3nc(N)c(C(=O)N[C@@H]4c5ccccc5C[C@@H]4O)c3n2)cc2c1C(=O)N([C@@H](C)C1CC1)C2 [Example 240]
IC50 [1]: < 100 nM | IC50 [2]: 100 to 1000 nM

Cc1cc(-c2ccn3nc(N)c(C(=O)NC4CS(=O)(=O)C4)c3n2)cc2c1C(=O)N([C@@H](C)C1CC1)C2 [Example 241]
IC50 [1]: < 100 nM | IC50 [2]: 100 to 1000 nM

Cc1cc(-c2ccn3nc(N)c(C(=O)NC4(C)CC4)c3n2)cc2c1C(=O)N([C@@H](C)C1CC1)C2 [Example 242]
IC50 [1]: < 100 nM | IC50 [2]: 100 to 1000 nM

Cc1cc(-c2ccn3nc(N)c(C(=O)N[C@H]4CCCNC4)c3n2)cc2c1C(=O)N([C@@H](C)C1CC1)C2 [Example 243]
IC50 [1]: < 100 nM | IC50 [2]: 100 to 1000 nM
